Like-named read-outs stand apart in the source and are kept apart here.
What was measured:
NAMPT = target: T1, NAMPT (Homo sapiens, UniProt P43490); experiment: Biochemical inhibition assay: NAMPT enzymatic reaction, NMN quantified by mass spectrometry; conditions: read-out: Biochem IC50
T1 construct: His tag; host or cells: E. coli
Outline: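 Inhibition of E. coli-expressed His-tagged human NAMPT, measured as NMN formation by mass spectrometry after a 30 min room-temperature reaction containing 1 μM NAM, 100 μM PRPP and 2.5 mM ATP.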

A2780 cells = experiment: In-vitro cell proliferation assay (SRB), A2780 cells; format: cell-based; conditions: A2780 cells, 72 hours, read-out: A2780 IC50
Outline: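 Viable cells measured by SRB staining after 6% TCA fixation, absorbance 570 nm. Media-only background subtracted; % inhibition derived at two compound concentrations.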

[1] = Homo sapiens, A2780, 72 h, SRB assay

T1 sequence (P43490 whole entry): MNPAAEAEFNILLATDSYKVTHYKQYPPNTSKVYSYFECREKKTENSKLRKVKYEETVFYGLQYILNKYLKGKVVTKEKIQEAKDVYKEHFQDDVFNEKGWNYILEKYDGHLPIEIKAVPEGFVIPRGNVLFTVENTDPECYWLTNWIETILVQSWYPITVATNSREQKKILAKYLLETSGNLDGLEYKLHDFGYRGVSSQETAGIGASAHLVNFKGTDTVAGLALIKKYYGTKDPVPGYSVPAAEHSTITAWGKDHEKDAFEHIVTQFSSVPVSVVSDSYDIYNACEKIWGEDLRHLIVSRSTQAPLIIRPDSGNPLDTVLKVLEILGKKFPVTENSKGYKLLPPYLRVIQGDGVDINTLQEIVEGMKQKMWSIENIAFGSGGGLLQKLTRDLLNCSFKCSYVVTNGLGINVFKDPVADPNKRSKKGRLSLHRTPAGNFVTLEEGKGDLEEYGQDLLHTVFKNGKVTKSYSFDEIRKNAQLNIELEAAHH

SMILES	IC50 (NAMPT; NAMPT enzymatic reaction) [nM]	IC50 (A2780 cells; [1]) [nM]	IC50 (NAMPT; NAMPT enzymatic assay) [nM]	IC50 (A2780 cells; Homo sapiens, A2780, 72 h, SRB) [nM]	IC50 (A2780 cells; SRB) [nM]
COc1cc(Cl)ccc1S(=O)(=O)c1ccc(CNC(=O)c2cc3ccncc3s2)cc1 [N-({4-[(4-chloro-2-methoxybenzene)sulfonyl]phenyl}methyl)thieno[2,3-c]pyridine-2-carboxamide]	10	3.8			
Cc1cc(C)n(-c2cccc(S(=O)(=O)c3ccc(CNC(=O)c4cnc5nccn5c4)cc3)c2)n1			1.8	4.1	
O=C(NCc1ccc(S(=O)(=O)c2cnc3n2CCCCC3)cc1)c1cnc2[nH]ncc2c1 [N-[(4-{5H,6H,7H,8H,9H-imidazo[1,2-a]azepine-3-sulfonyl}phenyl)methyl]-1H-pyrazolo[3,4-b]pyridine-5-carboxamide]			31.6	12.3	
O=C(NCc1ccc(S(=O)(=O)c2cccc(OC(F)(F)F)c2)cc1)c1cc2cnccc2[nH]1 [N-[(4-{[3-(trifluoromethoxy)benzene]sulfonyl}phenyl)methyl]-1H-pyrrolo[3,2-c]pyridine-2-carboxamide]	5	3			
CC(C)COc1ccc(S(=O)(=O)c2ccc(CNC(=O)c3cnc4[nH]ncc4c3)cc2)cc1 [N-[(4-{[4-(2-methylpropoxy)benzene]sulfonyl}phenyl)methyl]-1H-pyrazolo[3,4-b]pyridine-5-carboxamide]			26.3	16.2	
CCNC(=O)c1ccc(S(=O)(=O)c2ccc(CNC(=O)c3cnc4[nH]ncc4c3)cc2)cc1 [N-[(4-{[4-(ethylcarbamoyl)benzene]sulfonyl}phenyl)methyl]-1H-pyrazolo[3,4-b]pyridine-5-carboxamide]			103	96.8	
O=C(NCc1ccc(S(=O)(=O)c2ccc(C(F)(F)F)cc2C(F)(F)F)cc1)c1cnc2nccn2c1			18.8	96.4	
Cc1cc(Cl)cnc1S(=O)(=O)c1ccc(CNC(=O)c2ccc3nccn3c2)cc1 [N-{[4-(5-chloro-3-methylpyridine-2-sulfonyl)phenyl]methyl}imidazo[1,2-a]pyridine-6-carboxamide]			18.8	8	
COc1ccc(F)c(S(=O)(=O)c2ccc(CNC(=O)c3cc4cnccc4[nH]3)cc2)c1	77.8			14.4	
O=C(NCc1ccc(S(=O)(=O)c2cc(F)ccc2CO)cc1)c1cnc2nccn2c1			12.9	100 to 1000	
O=C(NCc1ccc(S(=O)(=O)c2ccccc2Oc2ccccc2)cc1)c1cc2cnccc2[nH]1 [N-({4-[(2-phenoxybenzene)sulfonyl]phenyl}methyl)-1H-pyrrolo[3,2-c]pyridine-2-carboxamide]	11	7			
O=C(NCc1ccc(S(=O)(=O)c2ccc(C3CCCCC3)cc2)cc1)c1cc2ccncc2s1	3.4			12.9	
O=C(NCc1ccc(S(=O)(=O)c2cnc3ccc(Cl)cn23)cc1)c1ccc2nccn2c1 [N-[(4-{6-chloroimidazo[1,2-a]pyridine-3-sulfonyl}phenyl)methyl]imidazo[1,2-a]pyridine-6-carboxamide]			5.3	0.4	
COc1cccc(S(=O)(=O)c2ccc(CNC(=O)c3cnc4nccn4c3)cc2)c1OC	17.6			77.6	
COc1c(F)cccc1S(=O)(=O)c1ccc(CNC(=O)c2cc3ccncc3s2)cc1	13.3			12.5	
O=C(NCc1ccc(S(=O)(=O)c2ccc(F)c(OCC(F)(F)F)c2)cc1)c1cc2cnccc2[nH]1			10.3	6.5	
O=C(NCc1ccc(S(=O)(=O)c2cccc(Cl)c2)cc1)c1cnc2[nH]ncc2c1 [N-({4-[(3-chlorobenzene)sulfonyl]phenyl}methyl)-1H-pyrazolo[3,4-b]pyridine-5-carboxamide]	7			6	
CN(C)c1ccc(S(=O)(=O)c2ccc(CNC(=O)c3cc4cnccc4[nH]3)cc2)cn1 [N-({4-[6-(dimethylamino)pyridine-3-sulfonyl]phenyl}methyl)-1H-pyrrolo[3,2-c]pyridine-2-carboxamide]			20.9	3.4	
COc1ccc(S(=O)(=O)c2ccc(CNC(=O)c3cc4ccncc4s3)cc2)cc1C [N-({4-[{4-methoxy-3-methylbenzene)sulfonyl]phenyl}methyl)thieno[2,3-c]pyridine-2-carboxamide]	3	2.4			
CCCCc1ccc(S(=O)(=O)c2ccc(CNC(=O)c3ccc4nccn4c3)cc2)cc1	5.7			7.6	
O=C(NCc1ccc(S(=O)(=O)c2cccc(-n3cccn3)c2)cc1)c1cc2ccncc2s1 [N-[(4-{[3-(1H-pyrazol-1-yl)benzene]sulfonyl}phenyl)methyl]thieno[2,3-c]pyridine-2-carboxamide]			1.5	0.1	
O=C(NCc1ccc(S(=O)(=O)c2ccccc2)cc1)c1cnc2nccn2c1 [N-{[4-(benzenesulfonyl)phenyl]methyl}imidazo[1,2-a]pyrimidine-6-carboxamide]			2	57	

SMILES	IC50 (NAMPT; NAMPT enzymatic reaction) [nM]	IC50 (A2780 cells; [1]) [nM]	IC50 (NAMPT; NAMPT enzymatic assay) [nM]	IC50 (A2780 cells; Homo sapiens, A2780, 72 h, SRB) [nM]	IC50 (A2780 cells; SRB) [nM]
COc1cccc(S(=O)(=O)c2ccc(CNC(=O)c3cc4cnccc4[nH]3)cc2)c1F [N-({4-[(2-fluoro-3-methoxybenzene)sulfonyl]phenyl}methyl)-1H-pyrrolo[3,2-c]pyridine-2-carboxamide]	10	7			
CC(=O)c1ccc(S(=O)(=O)c2ccc(CNC(=O)c3cnc4[nH]ncc4c3)cc2)cc1	28.9			3.7	
CCCOc1ccc(Cl)cc1S(=O)(=O)c1ccc(CNC(=O)c2cc3cnccc3[nH]2)cc1	7.5			1.2	
Cc1ncccc1S(=O)(=O)c1ccc(CNC(=O)c2cc3cnccc3[nH]2)cc1 [N-{[4-(2-methylpyridine-3-sulfonyl)phenyl]methyl}-1H-pyrrolo[3,2-c]pyridine-2-carboxamide]			180	24	
O=C(NCc1ccc(S(=O)(=O)c2cncc(F)c2)cc1)c1cnc2nccn2c1 [N-{[4-(5-fluoropyridine-3-sulfonyl)phenyl]methyl}imidazo[1,2-a]pyrimidine-6-carboxamide]			6.7	56.4	
COc1ccc(OC)c(S(=O)(=O)c2ccc(CNC(=O)c3ccc4nccn4c3)cc2)c1 [N-({4-[(2,5-dimethoxybenzene)sulfonyl]phenyl}methyl)imidazo[1,2-a]pyridine-6-carboxamide]	20.2			12.8	
Cc1cccc(C)c1S(=O)(=O)c1ccc(CNC(=O)c2cnc3[nH]ncc3c2)cc1 [N-({4-[(2,6-dimethylbenzene)sulfonyl]phenyl}methyl)-1H-pyrazolo[3,4-b]pyridine-5-carboxamide]	159			100 to 1000	
Cc1ccc(S(=O)(=O)c2ccc(CNC(=O)c3cnc4nccn4c3)cc2)cc1F	2.3			6.3	
COc1ccc(S(=O)(=O)c2ccc(CNC(=O)c3cnc4[nH]ncc4c3)cc2)cc1F [N-({4-[(3-fluoro-4-methoxybenzene)sulfonyl]phenyl}methyl)-1H-pyrazolo[3,4-b]pyridine-5-carboxamide]	43			6	
CCS(=O)(=O)c1cccc(S(=O)(=O)c2ccc(CNC(=O)c3cnc4nccn4c3)cc2)c1			2.7	64.5	
Cc1ccccc1S(=O)(=O)c1ccc(CNC(=O)c2cc3cnccc3[nH]2)cc1 [N-({4-[(2-methylbenzene)sulfonyl]phenyl}methyl)-1H-pyrrolo[3,2-c]pyridine-2-carboxamide]	14	13			
COc1ccc(S(=O)(=O)c2ccc(CNC(=O)c3cc4ccncc4o3)cc2)c(C)c1 [N-({4-[(4-methoxy-2-methylbenzene)sulfonyl]phenyl}methyl)furo[2,3-c]pyridine-2-carboxamide]	21.6			35.1	
COc1ccc(C)cc1S(=O)(=O)c1ccc(CNC(=O)c2cc3ccncc3o2)cc1	13.3			6.8	
O=C(NCc1ccc(S(=O)(=O)c2ccc(OCCN3CCCC3)cc2)cc1)c1cc2cnccc2[nH]1			3		2.3
Cc1ccc(Cl)cc1S(=O)(=O)c1ccc(CNC(=O)c2ccc3nccn3c2)cc1 [N-({4-[(5-chloro-2-methylbenzene)sulfonyl]phenyl}methyl)imidazo[1,2-a]pyridine-6-carboxamide]	1.9			3.7	
O=C(NCc1ccc(S(=O)(=O)c2cccc(-c3ccc(F)c(F)c3)n2)cc1)c1ccc2nccn2c1 [N-({4-[6-(3,4-difluorophenyl)pyridine-2-sulfonyl]phenyl}methyl)imidazo[1,2-a]pyridine-6-carboxamide]			4.3	5.7	
O=C(NCc1ccc(S(=O)(=O)c2cccc(N3CCCC3)c2)cc1)c1ccc2ncsc2c1			8.8	1000 to 10000	
O=C(NCc1ccc(S(=O)(=O)c2ccc3c(c2)OCO3)cc1)c1cnc2[nH]ncc2c1 [N-{[4-(2H-1,3-benzodioxole-5-sulfonyl)phenyl]methyl}-1H-pyrazolo[3,4-b]pyridine-5-carboxamide]			48.2	7.4	
CCc1ccc(S(=O)(=O)c2ccc(CNC(=O)c3cnc4nccn4c3)cc2)cc1	1.2			6.2	
O=C(NCc1ccc(S(=O)(=O)c2cccc(N3CCCC3)c2)cc1)c1cc2cnccc2[nH]1			13.4	2.8	
O=C(NCc1ccc(S(=O)(=O)c2ccccc2)cc1)c1noc(-c2cccnc2)n1 [N-{[4-(benzenesulfonyl)phenyl]methyl}-5-(pyridin-3-yl)-1,2,4-oxadiazole-3-carboxamide]	312	> 30000			
Cc1cc(C(F)(F)F)ccc1S(=O)(=O)c1ccc(CNC(=O)c2cc3cnccc3[nH]2)cc1			30.5	25.3	
